Key:
[1] = tested on: human mesenchymal-like cells (lung fibroblasts, skin fibroblasts, prostate stromal cells, renal mesangial cells); conditions: graded concentrations in cell culture media; cited from earlier work
[2] = Flow function coefficient (FFC) of powder blends mixed in a turbula mixer; type: physicochemical; conditions: powder blend
Protocol: Flow function coefficient (FFC) is a measure of powder flow. Values less than about 4 are considered poor and sub-optimal for powder processing. Values between 4-10 are considered acceptable flow values for powder processing. Flow behavior was analyzed for pure pirfenidone (without excipients) and a binary powder mixture of pirfenidone and microcrystalline cellulose mixed with either about 1% by weight silica or about 2% by weight silica, as shown in Table 3 below. The components were mixed in a turbula mixer and the different flow properties of the blends were measured.

[3] = after oral administration; cited from earlier work

For `Cc1ccc(=O)n(-c2ccccc2)c1` [Pirfenidone, 5-methyl-1-phenyl-2-(1H)-pyridone], the “Effective levels relative to levels exerting pharmacologically toxic effects on the cells” value [1] is listed as “ten to twenty times lower”, the “Flow Function Coefficient (Avg.)” value [2] is listed as 2.3 and the “Flow Function Coefficient (Avg.), flow rating in words” value [2] is listed as “(poor flow)”. The Observed side effects [3] was “relatively mild (drowsiness, gastric nausea or photosensitivity rash)” and the Serious adverse reactions [3] was “No serious adverse reactions have been reported”.
